Reference: US6737383B1, “Herbicidal oxadiazolidines” (priority 1999, dated 2004)

Experiments:
pigweed = experiment: Test B pre/postemergence pigweed; assay type: in vivo, Amaranthus retroflexus
Outline: (§1)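 Herbicidal effect was estimated by eye on a ten-point control scale after plants spent twelve to sixteen days in a greenhouse following soil or foliar treatment. Foliar sprays targeted plants at one to four leaves; all doses were formulated in a non-phytotoxic solvent with surfactant.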

purple nutsedge = experiment: Test B pre/postemergence purple nutsedge; assay type: in vivo, Cyperus rotundus
Outline: as §1

wild oat = experiment: Test B pre/postemergence wild oat; assay type: in vivo, Avena fatua
Outline: as §1

rape = experiment: Test B pre/postemergence rape; assay type: in vivo, Brassica napus
Outline: as §1

velvetleaf = experiment: Test B pre/postemergence velvetleaf; assay type: in vivo, Abutilon theophrasti
Outline: as §1

crabgrass = experiment: Test B pre/postemergence crabgrass; assay type: in vivo, Digitaria sanguinalis
Outline: as §1

bedstraw = experiment: Test B pre/postemergence bedstraw; assay type: in vivo, Galium aparine
Outline: as §1

giant foxtail = experiment: Test B pre/postemergence giant foxtail; assay type: in vivo, Setaria faberii
Outline: as §1

soybean = experiment: Test B pre/postemergence soybean; assay type: in vivo, Glycine max
Outline: as §1

cocklebur = experiment: Test B pre/postemergence cocklebur; assay type: in vivo, Xanthium strumarium
Outline: as §1

surinam grass = experiment: Test B pre/postemergence surinam grass; assay type: in vivo, Brachiaria decumbens
Outline: as §1

sugar beet = experiment: Test B pre/postemergence sugar beet; assay type: in vivo, Beta vulgaris
Outline: as §1

blackgrass = experiment: Test B pre/postemergence blackgrass; assay type: in vivo, Alopecurus myosuroides
Outline: as §1

morningglory = experiment: Test B pre/postemergence morningglory; assay type: in vivo, Ipomoea hederacea
Outline: as §1

wheat = experiment: Test B pre/postemergence wheat; assay type: in vivo, Triticum aestivum
Outline: as §1

corn = experiment: Test B pre/postemergence corn; assay type: in vivo, Zea mays
Outline: as §1

[1] = Postemergence, Rate 62 g/ha, scale 0 to 10, 0 is no effect, 10 is complete control
[2] = Postemergence, Rate 125 g/ha, scale of 0 to 10 where 0 is no effect and 10 is complete control
[3] = Postemergence, Rate 500 g/ha, scale 0 (no effect) to 10 (complete control)
[4] = Rate 62 g/ha, Preemergence, scale 0 to 10
[5] = Rate 125 g/ha, Preemergence, scale 0 to 10 (0 no effect, 10 complete control)
[6] = Rate 250 g/ha, Postemergence, scale 0 to 10, 0 is no effect, 10 is complete control
[7] = Rate 500 g/ha, Preemergence, scale 0 to 10 (0 no effect, 10 complete control)
[8] = Preemergence, Rate 250 g/ha, scale 0 (no effect) to 10 (complete control)

CCOC(CC)n1c(=O)on(C(=O)N(c2ccc(Cl)cc2)C(C)C)c1=O (stereo not drawn) [Compound 772]
0: Plant response rating, Redroot pigweed (pigweed; [1]) | Redroot pigweed plant response rating (pigweed; [2]) | Redroot pigweed plant response rating (pigweed; [3]) | Redroot pigweed plant response rating (pigweed; [4]) | Redroot pigweed plant response rating (pigweed; [5]) | Redroot pigweed plant response rating (pigweed; [6]) | Redroot pigweed plant response rating (pigweed; [7]) | Plant response rating, Nutsedge (purple nutsedge; [1]) | Nutsedge plant response rating (purple nutsedge; [2]) | Nutsedge plant response rating (purple nutsedge; [3]) | Nutsedge plant response rating (purple nutsedge; [4]) | Nutsedge plant response rating (purple nutsedge; [5]) | Nutsedge plant response rating (purple nutsedge; [6]) | Nutsedge plant response rating (purple nutsedge; [7]) | Plant response rating, Wild oats (wild oat; [1]) | Wild oats plant response rating (wild oat; [3]) | Wild oats plant response rating (wild oat; [4]) | Wild oats plant response rating (wild oat; [5]) | Wild oats plant response rating (wild oat; [6]) | Wild oats plant response rating (wild oat; [7]) | Plant response rating, Rape (rape; [1]) | Rape plant response rating (rape; [2]) | Rape plant response rating (rape; [3]) | Rape plant response rating (rape; [4]) | Rape plant response rating (rape; [5]) | Rape plant response rating (rape; [6]) | Rape plant response rating (rape; [7]) | Plant response rating, Velvetleaf (velvetleaf; [1]) | Velvetleaf plant response rating (velvetleaf; [3]) | Velvetleaf plant response rating (velvetleaf; [4]) | Velvetleaf plant response rating (velvetleaf; [5]) | Velvetleaf plant response rating (velvetleaf; [6]) | Velvetleaf plant response rating (velvetleaf; [7]) | Plant response rating, Crabgrass (crabgrass; [1]) | Crabgrass plant response rating (crabgrass; [2]) | Crabgrass plant response rating (crabgrass; [3]) | Crabgrass plant response rating (crabgrass; [8]) | Crabgrass plant response rating (crabgrass; [4]) | Crabgrass plant response rating (crabgrass; [5]) | Crabgrass plant response rating (crabgrass; [6]) | Crabgrass plant response rating (crabgrass; [7]) | Plant response rating, Bedstraw (bedstraw; [1]) | Bedstraw plant response rating (bedstraw; [2]) | Bedstraw plant response rating (bedstraw; [3]) | Bedstraw plant response rating (bedstraw; [8]) | Bedstraw plant response rating (bedstraw; [4]) | Bedstraw plant response rating (bedstraw; [5]) | Bedstraw plant response rating (bedstraw; [6]) | Bedstraw plant response rating (bedstraw; [7]) | Plant response rating, Giant foxtail (giant foxtail; [1]) | Giant foxtail plant response rating (giant foxtail; [2]) | Giant foxtail plant response rating (giant foxtail; [3]) | Giant foxtail plant response rating (giant foxtail; [8]) | Giant foxtail plant response rating (giant foxtail; [4]) | Giant foxtail plant response rating (giant foxtail; [5]) | Giant foxtail plant response rating (giant foxtail; [6]) | Giant foxtail plant response rating (giant foxtail; [7]) | Plant response rating, Soybean (soybean; [1]) | Soybean plant response rating (soybean; [3]) | Soybean plant response rating (soybean; [4]) | Soybean plant response rating (soybean; [5]) | Soybean plant response rating (soybean; [6]) | Soybean plant response rating (soybean; [7]) | Plant response rating, Cocklebur (cocklebur; [1]) | Cocklebur plant response rating (cocklebur; [2]) | Cocklebur plant response rating (cocklebur; [3]) | Cocklebur plant response rating (cocklebur; [8]) | Cocklebur plant response rating (cocklebur; [4]) | Cocklebur plant response rating (cocklebur; [5]) | Cocklebur plant response rating (cocklebur; [6]) | Cocklebur plant response rating (cocklebur; [7]) | Plant response rating, B. signalgrass (surinam grass; [1]) | B. signalgrass plant response rating (surinam grass; [2]) | B. signalgrass plant response rating (surinam grass; [8]) | B. signalgrass plant response rating (surinam grass; Rate 62 g/ha, Preemergence, scale 0 (no effect) to 10 (complete control)) | B. signalgrass plant response rating (surinam grass; [5]) | B. signalgrass plant response rating (surinam grass; [6]) | B. signalgrass plant response rating (surinam grass; Rate 500 g/ha, Postemergence, scale 0 to 10, 0 is no effect, 10 is complete control) | B. signalgrass plant response rating (surinam grass; [7]) | Plant response rating, Sugarbeets (sugar beet; [1]) | Sugarbeets plant response rating (sugar beet; [3]) | Sugarbeets plant response rating (sugar beet; [4]) | Sugarbeets plant response rating (sugar beet; [5]) | Sugarbeets plant response rating (sugar beet; [6]) | Sugarbeets plant response rating (sugar beet; [7]) | Plant response rating, Blackgrass (blackgrass; [1]) | Blackgrass plant response rating (blackgrass; [2]) | Blackgrass plant response rating (blackgrass; [3]) | Blackgrass plant response rating (blackgrass; [8]) | Blackgrass plant response rating (blackgrass; [4]) | Blackgrass plant response rating (blackgrass; [5]) | Blackgrass plant response rating (blackgrass; [6]) | Blackgrass plant response rating (blackgrass; [7]) | Plant response rating, Morningglory (morningglory; [1]) | Morningglory plant response rating (morningglory; [2]) | Morningglory plant response rating (morningglory; [4]) | Morningglory plant response rating (morningglory; [5]) | Morningglory plant response rating (morningglory; [6]) | Morningglory plant response rating (morningglory; [7]) | Plant response rating, Wheat (wheat; [1]) | Wheat plant response rating (wheat; [3]) | Wheat plant response rating (wheat; [4]) | Wheat plant response rating (wheat; [5]) | Wheat plant response rating (wheat; [6]) | Wheat plant response rating (wheat; [7]) | Plant response rating, Corn (corn; [1]) | Corn plant response rating (corn; [2]) | Corn plant response rating (corn; [3]) | Corn plant response rating (corn; [8]) | Corn plant response rating (corn; [4]) | Corn plant response rating (corn; [5]) | Corn plant response rating (corn; [6]) | Corn plant response rating (corn; [7])
2: Morningglory plant response rating (morningglory; [3])
